Conditions: pig, in vivo, po

Structure (SMILES)	presence of marker in the content of different sections of the gastrointestinal tract
C/C=C/C=C/C(=O)O [sorbic acid]	present in the different intestinal sections only when administered in encapsulated form in the lipid matrix
COc1cc(C=O)ccc1O [vanillin]	present in the different intestinal sections only when administered in encapsulated form in the lipid matrix

From patent US20210220314A1, “AMINO ACID COMPOSITION FOR ENABLING FULFILMENT OF THE AMINO ACID REQUIREMENTS OF A MONOGASTRIC ANIMAL SUCH AS A HUMAN OR A PIG” (VETAGRO INTERNATIONAL S.R.L., priority 2018, published 2021)
